# Key:
# [1] = Absorbance measurements (UV-Vis); details: for λabs: ACN/PBS; for Absorbance Wavelength: ACN:PBS buffer (50:50 v/v)
# Experimental: Samples were individually diluted to the final concentration of 25 μM (500 μL) using 50:50 acetonitrile in phosphate buffered saline (ACN/PBS). The absorbance spectrum of each derivative (150 μL) was measured on a Thermo Scientific Genesys 150 UV-Vis spectrometer, using 50:50 ACN/PBS as a blank.
# [2] = Fluorescent quantum yield (QY) measurements; format: physicochemical; details: for Fluorescence QY: ACN/PBS buffer (1:1 v/v); for Fluorescence quantum yield: in ACN
# Experimental: For each QY measurement, the incident excitation light spectrum was collected with 1 mL of solvent. […] Using the JASCO Quantum Yield Software, the dye QY was calculated by dividing the dye fluorescence intensity by the difference in incident light intensity in the presence and absence of dye. The minimum excitation wavelength for a full excitation incident spectrum using this setup is 360 nm.
# Fluorescent quantum yield (QY) measurements. For each QY measurement, the incident excitation light spectrum was collected with 1 mL of solvent. After measuring the incident light intensity, dye (3 and 5a-5k) was added to the solvent from a concentrated stock solution to a final concentration of […] and the new spectrum (fluorescence intensity and new incident light intensity) was collected. Using the JASCO Quantum Yield Software, the dye QY was calculated by dividing the dye fluorescence intensity by the difference in incident light intensity in the presence and absence of dye. The minimum excitation wavelength for a full excitation incident spectrum using this setup is 360 nm.
# [3] = Fluorescence (emission) measurements; format: physicochemical; details: for Emission λem: Table S12; for maximum emission wavelength (λem): 50:50 ACN/PBS, excitation at λabs;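 on all read-outs here: fluorescence emission spectra recorded on a spectrofluorometer, with each compound excited at its own absorption maximum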
# Experimental: The fluorescence spectrum of each derivative (150 μL) was measured on a Photon Technology International (PTI) QuantaMaster™ 40 fluorescence spectrometer by excitation at the maximum absorption wavelength for each compound.
# The fluorescence spectrum of each derivative (150 μL) was measured on a Photon Technology International (PTJ) QuantaMaster™ 40 fluorescence spectrometer by excitation at the maximum absorption wavelength for each compound.
# [4] = Molar absorptivity determination; format: physicochemical;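 further: molar absorptivity derived from UV-Vis absorbance spectra recorded for each derivative on a spectrometer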
# Experimental: The absorbance spectrum of each derivative (150 μL) was measured on a Thermo Scientific Genesys 150 UV-Vis spectrometer, using 50:50 ACN/PBS as a blank.
# Molar absorptivity determination. […] The absorbance spectrum of each derivative (150 μL) was measured on a Thermo Scientific Genesys 150 UV-Vis spectrometer, using 50:50 ACN/PBS as a blank.
# [5] = Solvatochromic measurements; format: physicochemical; details: organic solvents of different polarity
# Experimental: The remaining 850 μL solution was used to obtain fluorescence images under a handheld 365 nm UV lamp.
# Solvatochromic measurements. […] The remaining 850 μL solution was used to obtain fluorescence images under a handheld 365 nm UV lamp.
# αS fibrils [6] = biological target: T1, αS fibrils (Homo sapiens, UniProt P37840); assay: Fluorescence spectra with αS fibrils; format: binding
# T1 construct: intein-His6 (C, cleaved yes); made in house; host or cells: Escherichia coli BL21
# Experimental: Fluorescence measurements were performed using a PTI QuantaMaster™ 40 fluorescence spectrometer. Fluorescence spectra of 10 μM probes (concentrated stock solution prepared as 10 mM in DMSO) (7b, 7c, 7d, 7e, 7f, 7g and 7h) in PBS buffer were measured by excitation at their absorbance maximum wavelength in the absence and presence of 50 μM αS fibrils (stock solution 100 μM αS fibrils in PBS buffer).
# Fluorescence spectra with αS fibrils. Fluorescence measurements were performed using a PTI QuantaMaster 40 fluorescence spectrometer. Fluorescence spectra of 10 μM probes (concentrated stock solution prepared as 10 mM in DMSO) (5b-5f and 5h) in PBS buffer were measured by excitation at their absorbance maximum wavelength in the absence and presence of 50 μM αS fibrils (stock solution 100 μM αS fibrils in PBS buffer). […] FIGS. 77A-77F show fluorescence spectra of probes (5b-5f and 5h) with and without αS fibrils. Final concentrations of probes and αS fibrils were 10 μM and 50 μM, respectively. Emission spectra collected at each dye's maximum absorption wavelength. Ex/Em slit widths: 3 nm/3 nm. […] Absorbance is shown in FIG. 78A and FIG. 78B, whereas FIG. 78C and FIG. 78D show excitation spectra of probes 5j and 5k with and without αS fibrils. Final probe and fibrils concentrations were 10 μM and 50 μM, respectively. […] Emission wavelengths were 575 nm for 5j, 580 nm for 5k. Ex/Em slit widths: 3 nm/3 nm. […] Black line indicates incident light (αS fibrils without probe) and blue line indicates sample (αS fibrils with probe). Excitation at λexc=435 nm for 5j and λexc=463 nm for 5k and spectral collection (400-800 nm). Final concentrations of the probe and αS fibrils are the 100 μM. Ex/Em slit widths: 5 nm/5 nm.
# αS fibrils [7] = biological target: T1, αS fibrils; assay: Competition binding with ThT on αS fibrils
# [8] = pH measurements (absorption and emission); format: physicochemical; details: pH 2-11
# Experimental: 10 mM stock solutions of 7h, 7j, and 7k in DMSO were individually diluted into ACN/PBS buffer (50:50 v/v) having different pH ranging from pH 2-11 with 25 μM (500 μL) of final concentration. For pH screening of 7h and 7j, PBS buffer solutions were prepared, then adjusted the pH 2, 4, and 7 by adding 6 M hydrochloric acid, pH 9 and 11 by adding 5 M sodium hydroxide. For pH screening of 7k, pH 4.4 and 7.4 were prepared by citric acid/phosphate buffer. Then, the absorption and fluorescence spectra were recorded by using Thermo Scientific Genesys 150 UV-Vis spectrometer, followed by PTI QuantaMaster™ 40 fluorescence spectrometer by excitation with maximum absorption wavelength.
# pH measurements. 10 mM stock solutions of 5h and 5j in DMSO were individually diluted into ACN/PBS buffer (50:50 v/v) having different pH ranging from pH 2-11 with 25 µM (500 μL) of final concentration. For pH screening of 5h and 5j, PBS buffer solutions were prepared, then adjusted the pH 2, 4, and 7 by adding 6 M hydrochloric acid, pH 9 and 11 by adding 5 M sodium hydroxide. Then, we have recorded the absorption and fluorescence spectra by using Thermo Scientific Genesys 150 UV-Vis spectrometer, followed by PTI QuantaMaster™ 40 fluorescence spectrometer by excitation with maximum absorption wavelength.
# [9] = Fluorescence lifetime measurements (TCSPC); format: physicochemical; details: for Fluorescence Lifetime: ACN/PBS buffer (1:1 v/v); for Lifetime: ACN/PBS buffer (50:50 v/v), excitation 340 nm
# Experimental: Time correlated single photon counting (TCSPC) measurements of fluorescence lifetime decays for 100 μM solutions of dyes (6, 7c, 7e, 7f, and 7g) in ACN/PBS buffer (50:50 v/v) were collected with the PTI Quantamaster™ 40 using a pulsed LED with a maximum emission at 340 nm. Fluorescence emission was collected at the indicated wavelength for each dye with 20 nm slit widths. The instrument response function (IRF) was collected under identical conditions. Data analysis was performed with FluoFit software (PicoQuant GmbH; Berlin, Germany) using an exponential decay model.
# Fluorescence lifetime measurements. Time correlated single photon counting (TCSPC) measurements of fluorescence lifetime decays for 100 μM solutions of dyes (3 and 5c-f) in ACN/PBS buffer (50:50 v/v) were collected with the PTI Quantamaster™ 40 using a pulsed LED with a maximum emission at 340 nm. Fluorescence emission was collected at the indicated wavelength for each dye with 20 nm slit widths. The instrument response function ([…]) was collected under identical conditions. Data analysis was performed with FluoFit software (PicoQuant GmbH; Berlin, Germany) using an exponential decay model. […] FIG. 64D Fluorescence spectra of 5i-5k. […] Fluorescence spectra were measured at their maximum absorption wavelength. FIGS. 66A-66K show representative QY acquisitions of 3 and 5a-f, 5h-k in ACN/PBS buffer (50:50). All had consistent excitation (360 nm) and spectral collection (350-800 nm) parameters. Final concentration of the probe is 500 μM. Black line indicates incident light and blue line indicates sample spectrum. […] All had consistent excitation (360 nm, slit width 10 nm) and spectral collection (350-800 nm) parameters. Final concentration of the probe is 500 µM. Black line indicates incident light and blue line indicates sample spectrum. FIG. 68: Effect of pH on absorption and emission of 5h and 5j. […] For pH screening of 5h and 5j, PBS buffer solutions were prepared, then adjusted the pH 2, 4, and 7 by adding 6 M hydrochloric acid, pH 9 and 11 by adding 5 M sodium hydroxide. Emission spectra were measured by the excitation wavelength 354 nm for 5h and 385 nm for 5j. […] Lifetime measurements with exponential fits shown at left and residuals after fitting shown at right.
# [10] = 25 μM in ACN/PBS buffer (1:1 v/v), pH 7.4
# [11] = ACN/PBS buffer (1:1 v/v), pH 7.4
# [12] = in ACN, at maximum absorption wavelength
Compound,Absorbance λmax ([1]; 25 μM in ACN) [nm],"Absorbance λmax [1, 10] [nm]",λabs [1] [nm],Absorbance Wavelength ([1]; Table 11) [nm],Absorbance Wavelength ([1]; Table S14) [nm],Fluorescence QY [2] [%],Fluorescence quantum yield [2] [%],Fluorescence quantum yield ([2]; Table S12) [%],Emission λmax ([3]; 25 μM in ACN) [nm],"Emission λmax [3, 10] [nm]",Emission λem ([3]; 25 μM in ACN) [nm],Stokes shift ([3]; ACN/PBS buffer (1:1 v/v)) [nm],Stokes shift ([3]; in ACN) [nm],"Molar Absorptivity (ε) [4, 11] [M⁻¹ cm⁻¹]","Molar Absorptivity (ε) [4, 12] [M⁻¹ cm⁻¹]",solvatochromism / environmental sensitivity [5],maximum emission wavelength (λem) [3] [nm],Fluorescence Lifetime [9] [ns],Lifetime ([9]; Table 4) [ns],Lifetime ([9]; Table S13) [ns],further results
"Cc1c(C)n2c(/C=C/c3ccc(C#N)cc3)c(C)c(=O)n2c1=O [Compound 7b, (E)-4-(2-(2,5,6-trimethyl-1,7-dioxo-1H,7H-pyrazolo[1,2-a]pyrazol-3-yl)vinyl)benzonitrile]",316,320,320,320,320,0.8,1.4,1.4,522,520,522,200,206,38995,43238,no significant solvatochromism,–,–,–,–,–
"(E)-3-(4-(dimethylamino)styryl)-2,5,6-trimethyl-1H,7H-pyrazolo[1,2-a]pyrazole-1,7-dione [Compound 7l]",–,–,–,385,–,–,–,–,–,–,–,–,–,–,–,–,–,–,–,–,concentration-dependent shift in the emission maximum with αS fibrils (αS fibrils [6]): binding at limited sites with high affinity; competition with ThT on αS PFFs (αS fibrils [7]): displacement of the known amyloid-binding dye ThT
"Cc1c(C)n2c(/C=C/c3ccc(O)cc3)c(C)c(=O)n2c1=O [Compound 7h, (E)-3-(4-hydroxystyryl)-2,5,6-trimethyl-1H,7H-pyrazolo[1,2-a]pyrazole-1,7-dione]",342,354,–,348,354,2.3,3.1,3.1,–,506,–,152,144,31514,29910,–,505,–,–,–,"pH effects on absorption and emission [8]: red-shifted absorption at pH 11 with a reduced QY, but no shift in emission"
"Cc1c(C)n2c(/C=C/c3ccccc3)c(C)c(=O)n2c1=O [Compound 7e, (E)-2,3,6-trimethyl-5-styryl-1H,7H-pyrazolo[1,2-a]pyrazole-1,7-dione]",316,321,321,321,321,2.5,3.1,3.1,–,503,–,182,176,23959,32724,no significant solvatochromism,–,1.02,1.02 ± 0.004,1.02 ± 0.004,–
"COP(=O)(Cc1c(C)c(=O)n2c(=O)c(C)c(C)n12)OC [Compound 6, dimethyl ((2,5,6-trimethyl-1,7-dioxo-1H,7H-pyrazolo[1,2-a]pyrazol-3-yl)methyl)phosphonate]",375,384,–,–,–,64.6,77.7,77.7,432,464,432,80,57,7902,6121,no significant environmental sensitivity,464,2.32,2.32 ± 0.01,2.32 ± 0.01,fluorescence quantum yield (QY) ([2]; in ACN/PBS): 64.6%; fluorescent lifetime ([9]; ACN/PBS): 2.32 ns

# Reference: US20240336617A1, “Substituted Bimane Compounds and Methods of Use Thereof” (THE TRUSTEES OF THE UNIVERSITY OF PENNSYLVANIA, priority 2023, published 2024)
